This note sets out measurements from US12673945B2, “3-((8-((1H-pyrazol-4-yl)amino)imidazo[1,2-a]pyridin-3-yl)ethinyl)-n-phenylbenzamide derivative, method for preparing same, and pharmaceutical composition containing same as active ingredient for prevention or treatment of cancer” (DAEGU-GYEONGBUK MEDICAL INNOVATION FOUNDATION, priority 2020, dated 2026).

SMILES strings stand for the structures. Where only a bound is given, the exact number is not on record here.

As usually defined, the GI50 is the concentration at which growth is held to half of that of the control.

Format in all cases: cell-based
One test concerns Parental (Ba/F3). Put plainly: Ba/F3 cell proliferation inhibition. Particulars: BaF3; 72 hours, Cell Counting Kit-8. Summed up: (§1)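 GI50 derived from CCK-8 absorbance at 450 nm (2 h development), expressed relative to DMSO vehicle. Cells (parental or T315I-Bcr-Abl Ba/F3, 1×10^4/well) received nine threefold-diluted concentrations, final 0 to 10 μM, for 72 h at 37 °C.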
(In general: Tetrazolium assays rely on reduction of a dye to a coloured formazan, in cell work by metabolically active cells.)

For the next test, the system named is T315I-Bcr-Abl (Ba/F3). Put plainly: Ba/F3 cell proliferation inhibition. As to conditions: BaF3; 72 hours, Cell Counting Kit-8. Summed up:
as §1

A further test deals with KOPM28 cells. Put plainly: human CML cell proliferation inhibition. As to conditions: 72 hours, Cell Counting Kit-8. Summed up:
(§2)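 Here GI50 reflects CCK-8 absorbance (450 nm) after a 72 h compound exposure, calculated relative to vehicle wells. Compound was tested up to a final 10 μM. The parental lines carry Bcr-Abl, the T315I lines carry the T315I gatekeeper mutant.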

The next test deals with T315I-KOPM28 cells. Put plainly: human CML cell proliferation inhibition. Particulars: 72 hours, Cell Counting Kit-8. Summed up:
as §2

A further test deals with T315I-TCCS cells. Put plainly: human CML cell proliferation inhibition. As to conditions: 72 hours, Cell Counting Kit-8. A digest of the protocol: as §2
The test system of a further test is TCCS cells. Put plainly: human CML cell proliferation inhibition. Particulars: 72 hours, Cell Counting Kit-8. Summed up:
as §2

As for `Cc1cc(F)c(C(=O)Nc2ccc(CN3CCCN(C)CC3)c(C(F)(F)F)c2)cc1C#Cc1cnc2c(Nc3cnn(C)c3)cccn12` [Example 61, 2-fluoro-4-methyl-N-(4-((4-methyl-1,4-diazepan-1-yl)methyl)-3-(trifluoromethyl)phenyl)-5-((8-((1-methyl-1H-pyrazol-4-yl)amino)imidazo[1,2-a]pyridin-3-yl)ethynyl)benzamide], the GI50 with Parental (Ba/F3) is 500 to 5000 nM; in the test on T315I-Bcr-Abl (Ba/F3), less than 50 nM; in the test on KOPM28 cells, less than 10 nM; with T315I-KOPM28 cells, less than 10 nM; with T315I-TCCS cells, 100 nM; in the test with TCCS cells, less than 10 nM.
For the compound `Cc1cc(F)c(C(=O)Nc2cc(CN3CCN(CCO)CC3)cc(C(C)(C)C#N)c2)cc1C#Cc1cnc2c(Nc3cn[nH]c3)cccn12` [Example 86, 5-((8-((1H-pyrazol-4-yl)amino)imidazo[1,2-a]pyridin-3-yl)ethynyl)-N-(3-(2-cyanopropan-2-yl)-5-((4-(2-hydroxyethyl)piperazin-1-yl)methyl)phenyl)-2-fluoro-4-methylbenzamide], the GI50 in the test on Parental (Ba/F3) is 500 to 5000 nM; in the test with T315I-Bcr-Abl (Ba/F3), less than 50 nM; in the test with KOPM28 cells, less than 10 nM; in the test on T315I-KOPM28 cells, 100 nM; in the test on T315I-TCCS cells it was 100 nM; with TCCS cells it was less than 10 nM.
On to `Cc1cc(F)c(C(=O)Nc2ccc(CN3CCN(S(C)(=O)=O)CC3)c(C(F)(F)F)c2)cc1C#Cc1cnc2c(Nc3cnn(C)c3)cccn12` [Example 60, 2-fluoro-4-methyl-5-((8-((1-methyl-1H-pyrazol-4-yl)amino)imidazo[1,2-a]pyridin-3-yl)ethynyl)-N-(4-((4-(methylsulfonyl)piperazin-1-yl)methyl)-3-(trifluoromethyl)phenyl)benzamide], for which the GI50 with Parental (Ba/F3) is 500 to 5000 nM; in the test on T315I-Bcr-Abl (Ba/F3), less than 50 nM; with KOPM28 cells it was 100 nM; in the test on T315I-KOPM28 cells, more than 100 nM; with T315I-TCCS cells, 100 nM; in the test on TCCS cells it was less than 10 nM.
Regarding `Cc1cc(F)c(C(=O)Nc2cc(N3CCN(C)C(=O)C3)cc(C(F)(F)F)c2)cc1C#Cc1cnc2c(Nc3cn[nH]c3)cccn12` [Example 100, 5-((8-((1H-pyrazol-4-yl)amino)imidazo[1,2-a]pyridin-3-yl)ethynyl)-2-fluoro-4-methyl-N-(3-(4-methyl-3-oxopiperazin-1-yl)-5-(trifluoromethyl)phenyl)benzamide], the GI50 is more than 5000 nM in the test with Parental (Ba/F3); 50 to 500 nM in the test with T315I-Bcr-Abl (Ba/F3); less than 10 nM in the test with KOPM28 cells; more than 100 nM with T315I-KOPM28 cells; 100 nM in the test with T315I-TCCS cells; less than 10 nM in the test on TCCS cells.
Take `Cc1cn(-c2cc(NC(=O)c3cc(C#Cc4cnc5c(Nc6cn[nH]c6)cccn45)c(C)cc3F)cc(C(C)(C)C#N)c2)cn1` [Example 75, 5-((8-((1H-pyrazol-4-yl)amino)imidazo[1,2-a]pyridin-3-yl)ethynyl)-N-(3-(2-cyanopropan-2-yl)-5-(4-methyl-1H-imidazol-1-yl)phenyl)-2-fluoro-4-methylbenzamide]: the 50% growth inhibitory concentration (GI50) with Parental (Ba/F3) is more than 5000 nM; in the test on T315I-Bcr-Abl (Ba/F3), less than 50 nM; in the test with KOPM28 cells, less than 10 nM; in the test on T315I-KOPM28 cells, 100 nM; in the test on T315I-TCCS cells it was 100 nM; in the test with TCCS cells, less than 10 nM.
Regarding `Cc1cc(F)c(C(=O)Nc2cc(N(C)CCN(C)C)cc(C(C)(C)C#N)c2)cc1C#Cc1cnc2c(Nc3cnn(C)c3)cccn12` [Example 22, N-(3-(2-cyanopropan-2-yl)-5-((2-(dimethylamino)ethyl)(methyl)amino)phenyl)-2-fluoro-4-methyl-5-((8-((1-methyl-1H-pyrazol-4-yl)amino)imidazo[1,2-a]pyridin-3-yl)ethynyl)benzamide], the GI50 is 500 to 5000 nM with Parental (Ba/F3); 50 to 500 nM in the test with T315I-Bcr-Abl (Ba/F3); less than 10 nM in the test on KOPM28 cells; 100 nM in the test with T315I-KOPM28 cells; 100 nM in the test on T315I-TCCS cells; less than 10 nM with TCCS cells.
Turning to `Cc1cc(F)c(C(=O)Nc2cc(Oc3ccncc3)cc(C(F)(F)F)c2)cc1C#Cc1cnc2c(Nc3cnn(C)c3)cccn12` [Example 7, 2-fluoro-4-methyl-5-((8-((1-methyl-1H-pyrazol-4-yl)amino)imidazo[1,2-a]pyridin-3-yl)ethynyl)-N-(3-(pyridin-4-yloxy)-5-(trifluoromethyl)phenyl)benzamide], the GI50 in the test on Parental (Ba/F3) was more than 5000 nM; in the test with T315I-Bcr-Abl (Ba/F3), less than 50 nM; with KOPM28 cells it was less than 10 nM; in the test on T315I-KOPM28 cells, less than 10 nM; in the test on T315I-TCCS cells it was less than 10 nM; with TCCS cells it was less than 10 nM.
As to `Cc1cc(F)c(C(=O)Nc2cc(-c3cnn(C)c3)cc(C(F)(F)F)c2)cc1C#Cc1cnc2c(Nc3cn[nH]c3)cccn12` [Example 96, 5-((8-((1H-pyrazol-4-yl)amino)imidazo[1,2-a]pyridin-3-yl)ethynyl)-2-fluoro-4-methyl-N-(3-(1-methyl-1H-pyrazol-4-yl)-5-(trifluoromethyl)phenyl)benzamide], the GI50 with Parental (Ba/F3) is more than 5000 nM; with T315I-Bcr-Abl (Ba/F3), 50 to 500 nM; in the test on KOPM28 cells it was less than 10 nM; in the test on T315I-KOPM28 cells, more than 100 nM; in the test with T315I-TCCS cells, more than 100 nM; with TCCS cells it was 100 nM.
`Cc1cc(F)c(C(=O)Nc2ccc(CN3CCN(S(C)(=O)=O)CC3)c(C(C)(C)C#N)c2)cc1C#Cc1cnc2c(Nc3cn[nH]c3)cccn12` [Example 94, 5-((8-((1H-pyrazol-4-yl)amino)imidazo[1,2-a]pyridin-3-yl)ethynyl)-N-(3-(2-cyanopropan-2-yl)-4-((4-(methylsulfonyl)piperazin-1-yl)methyl)phenyl)-2-fluoro-4-methylbenzamide]: the GI50 in the test on Parental (Ba/F3) is more than 5000 nM; in the test with T315I-Bcr-Abl (Ba/F3), 500 to 5000 nM; in the test with KOPM28 cells, less than 10 nM; in the test on T315I-KOPM28 cells it was more than 100 nM; in the test with T315I-TCCS cells, more than 100 nM; in the test on TCCS cells it was less than 10 nM.
As to `Cc1cc(F)c(C(=O)Nc2cc(Oc3ccncc3)cc(C(C)(C)C#N)c2)cc1C#Cc1cnc2c(Nc3cnn(C)c3)cccn12` [Example 26, N-(3-(2-cyanopropan-2-yl)-5-(pyridin-4-yloxy)phenyl)-2-fluoro-4-methyl-5-((8-((1-methyl-1H-pyrazol-4-yl)amino)imidazo[1,2-a]pyridin-3-yl)ethynyl)benzamide], the GI50 was more than 5000 nM in the test with Parental (Ba/F3); less than 50 nM in the test with T315I-Bcr-Abl (Ba/F3); less than 10 nM with KOPM28 cells; 100 nM with T315I-KOPM28 cells; less than 10 nM in the test with T315I-TCCS cells; less than 10 nM with TCCS cells.
For `Cc1cc(F)c(C(=O)Nc2cc(CN3CCN(C)C(=O)C3)cc(C(C)(C)C#N)c2)cc1C#Cc1cnc2c(Nc3cn[nH]c3)cccn12` [Example 88, 5-((8-((1H-pyrazol-4-yl)amino)imidazo[1,2-a]pyridin-3-yl)ethynyl)-N-(3-(2-cyanopropan-2-yl)-5-((4-methyl-3-oxopiperazin-1-yl)methyl)phenyl)-2-fluoro-4-methylbenzamide], the GI50 with Parental (Ba/F3) was 500 to 5000 nM; with T315I-Bcr-Abl (Ba/F3), 50 to 500 nM; in the test on KOPM28 cells it was less than 10 nM; in the test with T315I-KOPM28 cells, more than 100 nM; in the test on T315I-TCCS cells, more than 100 nM; with TCCS cells, less than 10 nM.
As for `Cc1cc(F)c(C(=O)Nc2ccc(CN3CCC(N(C)C)C3)c(C(C)(C)C#N)c2)cc1C#Cc1cnc2c(Nc3cnn(C)c3)cccn12` (stereo not drawn) [Example 41, N-(3-(2-cyanopropan-2-yl)-4-((3-(dimethylamino)pyrrolidin-1-yl)methyl)phenyl)-2-fluoro-4-methyl-5-((8-((1-methyl-1H-pyrazol-4-yl)amino)imidazo[1,2-a]pyridin-3-yl)ethynyl)benzamide], the GI50 was 500 to 5000 nM with Parental (Ba/F3); 50 to 500 nM in the test on T315I-Bcr-Abl (Ba/F3); less than 10 nM with KOPM28 cells; more than 100 nM in the test with T315I-KOPM28 cells; more than 100 nM with T315I-TCCS cells; less than 10 nM in the test with TCCS cells.
For the compound `Cc1cc(F)c(C(=O)Nc2cc(N3CCN(C)CC3)cc(C(C)(C)C#N)c2)cc1C#Cc1cnc2c(Nc3cn[nH]c3)cccn12` [Example 80, 5-((8-((1H-pyrazol-4-yl)amino)imidazo[1,2-a]pyridin-3-yl)ethynyl)-N-(3-(2-cyanopropan-2-yl)-5-(4-methylpiperazin-1-yl)phenyl)-2-fluoro-4-methylbenzamide], the GI50 with Parental (Ba/F3) was more than 5000 nM; in the test with T315I-Bcr-Abl (Ba/F3), 50 to 500 nM; with KOPM28 cells, less than 10 nM; in the test on T315I-KOPM28 cells, more than 100 nM; with T315I-TCCS cells, 100 nM; in the test with TCCS cells, less than 10 nM.
As to `Cc1cc(F)c(C(=O)Nc2ccc(CN3CCC(N(C)C)C3)c(C(F)(F)F)c2)cc1C#Cc1cnc2c(Nc3cnn(C)c3)cccn12` (stereo not drawn) [Example 59, N-(4-((3-(dimethylamino)pyrrolidine-1-yl)methyl)-3-(trifluoromethyl)phenyl)-2-fluoro-4-methyl-5-((8-((1-methyl-1H-pyrazol-4-yl)amino)imidazo[1,2-a]pyridin-3-yl)ethynyl)benzamide], the GI50 is more than 5000 nM with Parental (Ba/F3); 50 to 500 nM in the test with T315I-Bcr-Abl (Ba/F3); less than 10 nM in the test with KOPM28 cells; more than 100 nM in the test on T315I-KOPM28 cells; 100 nM in the test with T315I-TCCS cells; less than 10 nM in the test on TCCS cells.
Regarding `Cc1cc(F)c(C(=O)Nc2cc(CN3CCN(CCO)CC3)cc(C(C)(C)C#N)c2)cc1C#Cc1cnc2c(Nc3cnn(C)c3)cccn12` [Example 10, N-(3-(2-cyanopropan-2-yl)-5-((4-(2-hydroxyethyl)piperazin-1-yl)methyl)phenyl)-2-fluoro-4-methyl-5-((8-((1-methyl-1H-pyrazol-4-yl)amino)imidazo[1,2-a]pyridin-3-yl)ethynyl)benzamide], the GI50 in the test with Parental (Ba/F3) was 500 to 5000 nM; in the test on T315I-Bcr-Abl (Ba/F3), less than 50 nM; in the test with KOPM28 cells, less than 10 nM; with T315I-KOPM28 cells, 100 nM; with T315I-TCCS cells, 100 nM; in the test with TCCS cells, less than 10 nM.
